Assay results as given in ChEMBL document CHEMBL1126936, “Synthesis and antitumor activity of 10-propargyl-10-deazaaminopterin” (J Med Chem, 1993).
One block for each compound: values may come before it.

Tests used:
Dihydrofolate reductase = target: T1, Dihydrofolate reductase (Mus musculus, UniProt P00375); test: Inhibition of Dihydrofolate reductase (DHFR) enzyme derived from L1210 cells expressed as Ki (pM); format: cell-based
T1 sequence (P00375 whole entry): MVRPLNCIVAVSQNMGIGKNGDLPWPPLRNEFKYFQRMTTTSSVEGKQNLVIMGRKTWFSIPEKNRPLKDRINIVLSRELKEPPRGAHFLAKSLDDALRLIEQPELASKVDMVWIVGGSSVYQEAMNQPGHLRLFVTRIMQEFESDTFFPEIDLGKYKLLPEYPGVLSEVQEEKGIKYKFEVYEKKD

Mus musculus [1] = species on record: Mus musculus; test: (§1) Inhibition of growth in L1210 murine leukemia cells in culture expressed as IC50 (nM); format: functional, cell-based
Mus musculus [2] = species on record: Mus musculus; test: (§2) Transport influx which is determined by competitive binding for the transport protein; expressed as Ki (uM); format: functional, organism-based
L1210 [3] = test: as §1; format: functional, cell-based; details: Mus musculus
L1210 [4] = test: as §2; format: functional, cell-based, Mus musculus
Mus musculus [5] = test: Average E0771 solid murine mammary tumor volume in BDF1 female mice (n=5) at 36 mg/kg at 10 day post treatment point; Expressed as % T/C; format: functional
Mus musculus [6] = test: Average E0771 solid murine mammary tumor volume in BDF1 female mice (n=5) at 36 mg/kg at 14 day post treatment point; Expressed as % T/C; format: functional
Mus musculus [7] = test: Average E0771 solid murine mammary tumor volume in BDF1 female mice (n=5) at 36 mg/kg at 21 day post treatment point; Expressed as % T/C; format: functional
Mus musculus [8] = test: Average E0771 solid murine mammary tumor volume in BDF1 female mice (n=5) at 24 mg/kg at 10 day post treatment point; Expressed as % T/C; format: functional
Mus musculus [9] = test: Average E0771 solid murine mammary tumor volume in BDF1 female mice (n=5) at 24 mg/kg at 14 day post treatment point; Expressed as % T/C; format: functional
Mus musculus [10] = test: Average E0771 solid murine mammary tumor volume in BDF1 female mice (n=5) at 24 mg/kg at 21 day post treatment point; Expressed as % T/C; format: functional
Mus musculus [11] = test: Average E0771 solid murine mammary tumor volume in BDF1 female mice (n=5) at 24 mg/kg at 10 day post treatment point; format: functional
Mus musculus [12] = test: Average E0771 solid murine mammary tumor volume in BDF1 female mice (n=5) at 24 mg/kg at 14 day post treatment point; format: functional
Mus musculus [13] = test: Average E0771 solid murine mammary tumor volume in BDF1 female mice (n=5) at 24 mg/kg at 21 day post treatment point; format: functional
Mus musculus [14] = test: Average E0771 solid murine mammary tumor volume in BDF1 female mice (n=5) at 36 mg/kg at 10 day post treatment point; format: functional
Mus musculus [15] = test: Average E0771 solid murine mammary tumor volume in BDF1 female mice (n=3) at 36 mg/kg at 14 day post treatment point
Mus musculus [16] = test: Average E0771 solid murine mammary tumor volume in BDF1 female mice (n=3) at 36 mg/kg at 21 day post treatment point
Mus musculus [17] = test: Average E0771 solid murine mammary tumor volume in BDF1 female mice (n=5) at 9 mg/kg at 10 day post treatment point; Expressed as % T/C; format: functional
Mus musculus [18] = test: Average E0771 solid murine mammary tumor volume in BDF1 female mice (n=5) at 6 mg/kg at 10 day post treatment point; Expressed as % T/C; format: functional
Mus musculus [19] = test: Average E0771 solid murine mammary tumor volume in BDF1 female mice (n=5) at 6 mg/kg at 14 day post treatment point; Expressed as % T/C; format: functional
Mus musculus [20] = test: Average E0771 solid murine mammary tumor volume in BDF1 female mice (n=5) at 6 mg/kg at 21 day post treatment point; Expressed as % T/C; format: functional
Mus musculus [21] = test: Average E0771 solid murine mammary tumor volume in BDF1 female mice (n=5) at 9 mg/kg at 14 day post treatment point; Expressed as % T/C; format: functional
Mus musculus [22] = test: Average E0771 solid murine mammary tumor volume in BDF1 female mice (n=5) at 9 mg/kg at 21 day post treatment point; Expressed as % T/C; format: functional
Mus musculus [23] = test: Average E0771 solid murine mammary tumor volume in BDF1 female mice (n=5) at 3 mg/kg at 10 day post treatment point; Expressed as % T/C; format: functional
Mus musculus [24] = test: Average E0771 solid murine mammary tumor volume in BDF1 female mice (n=5) at 3 mg/kg at 14 day post treatment point; Expressed as % T/C; format: functional
Mus musculus [25] = test: Average E0771 solid murine mammary tumor volume in BDF1 female mice (n=5) at 3 mg/kg at 21 day post treatment point; Expressed as % T/C; format: functional
Mus musculus [26] = test: Average E0771 solid murine mammary tumor volume in BDF1 female mice (n=5) at 3 mg/kg at 10 day post treatment point; format: functional
Mus musculus [27] = test: Average E0771 solid murine mammary tumor volume in BDF1 female mice (n=5) at 3 mg/kg at 14 day post treatment point; format: functional
Mus musculus [28] = test: Average E0771 solid murine mammary tumor volume in BDF1 female mice (n=5) at 3 mg/kg at 21 day post treatment point; format: functional
Mus musculus [29] = test: Average E0771 solid murine mammary tumor volume in BDF1 female mice (n=5) at 6 mg/kg at 10 day post treatment point; format: functional
Mus musculus [30] = test: Average E0771 solid murine mammary tumor volume in BDF1 female mice (n=5) at 6 mg/kg at 14 day post treatment point; format: functional
Mus musculus [31] = test: Average E0771 solid murine mammary tumor volume in BDF1 female mice (n=5) at 6 mg/kg at 21 day post treatment point; format: functional
Mus musculus [32] = test: Average E0771 solid murine mammary tumor volume in BDF1 female mice (n=5) at 9 mg/kg at 10 day post treatment point; format: functional
Mus musculus [33] = test: Average E0771 solid murine mammary tumor volume in BDF1 female mice (n=5) at 9 mg/kg at 14 day post treatment point; format: functional
Mus musculus [34] = test: Average E0771 solid murine mammary tumor volume in BDF1 female mice (n=5) at 9 mg/kg at 21 day post treatment point; format: functional

SMILES: Nc1nc(N)c2nc(CCc3ccc(C(=O)N[C@@H](CCC(=O)O)C(=O)O)cc3)cnc2n1
- Ki (Dihydrofolate reductase): 0.0036 nM
- IC50 (Mus musculus [1]): 1.8 nM
- Ki (Mus musculus [2]): 900 nM

- Ki (Dihydrofolate reductase): > 1 nM
- IC50 (L1210 [3]): 251 nM
- Ki (L1210 [4]): 1000 nM
SMILES: CCCCCC(Cc1cnc2nc(N)nc(N)c2n1)c1ccc(C(=O)NC(CCC(=O)O)C(=O)O)cc1 (configuration not stated)

- Ki (Dihydrofolate reductase): 0.0182 nM
- Ki (Mus musculus [2]): 450 nM
SMILES: C#CCC(Cc1cnc2nc(N)nc(N)c2n1)c1ccc(C(=O)NC(CCC(=O)O)C(=O)O)cc1 (configuration not stated)
- IC50 (Mus musculus [1]): 2 nM
- T/C (Mus musculus [5]): 31%
- T/C (Mus musculus [6]): 1%
- T/C (Mus musculus [7]): 1%
- T/C (Mus musculus [8]): 47%
- T/C (Mus musculus [9]): 2%
- T/C (Mus musculus [10]): 10%
- Average tumor volume (Mus musculus [11]): 62 mm**3
- Average tumor volume (Mus musculus [12]): 19 mm**3
- Average tumor volume (Mus musculus [13]): 204 mm**3
- Average tumor volume (Mus musculus [14]): 48 mm**3
- Average tumor volume (Mus musculus [15]): 6 mm**3
- Average tumor volume (Mus musculus [16]): 21 mm**3

- Ki (Dihydrofolate reductase): 0.0092 nM
- IC50 (L1210 [3]): 2.03 nM
- Ki (L1210 [4]): 1100 nM
SMILES: CCCC(Cc1cnc2nc(N)nc(N)c2n1)c1ccc(C(=O)NC(CCC(=O)O)C(=O)O)cc1 (configuration not stated)

- IC50 (L1210 [3]): 9.5 nM
- Ki (Mus musculus [2]): 4200 nM
SMILES: CN(Cc1cnc2nc(N)nc(N)c2n1)c1ccc(C(=O)N[C@@H](CCC(=O)O)C(=O)O)cc1 [METHOTREXATE]
- T/C (Mus musculus [17]): 3%
- T/C (Mus musculus [18]): 26%
- T/C (Mus musculus [19]): 2%
- T/C (Mus musculus [20]): 18%
- T/C (Mus musculus [21]): 2%
- T/C (Mus musculus [22]): 15%
- T/C (Mus musculus [23]): 86%
- T/C (Mus musculus [24]): 15%
- T/C (Mus musculus [25]): 61%
- Average tumor volume (Mus musculus [26]): 113 mm**3
- Average tumor volume (Mus musculus [27]): 187 mm**3
- Average tumor volume (Mus musculus [28]): 1260 mm**3
- Average tumor volume (Mus musculus [29]): 34 mm**3
- Average tumor volume (Mus musculus [30]): 19 mm**3
- Average tumor volume (Mus musculus [31]): 382 mm**3
- Average tumor volume (Mus musculus [32]): 4 mm**3
- Average tumor volume (Mus musculus [33]): 19 mm**3
- Average tumor volume (Mus musculus [34]): 310 mm**3

- Ki (Dihydrofolate reductase): 0.0041 nM
- Ki (Mus musculus [2]): 950 nM
SMILES: CC(Cc1cnc2nc(N)nc(N)c2n1)c1ccc(C(=O)NC(CCC(=O)O)C(=O)O)cc1 (configuration not stated)
- IC50 (Mus musculus [1]): 1.34 nM
